Results reported in article PMC5863496, “Mesobuthus Venom-Derived Antimicrobial Peptides Possess Intrinsic Multifunctionality and Differential Potential as Drugs” (Frontiers in Microbiology, 2018).
Ends that are not written are not given here.

Columns and labels:
Assay in all cases: Inhibition-zone assay (CL)
Format in all cases: cell-based
[1] = test system: penicillin-sensitive Staphylococcus epidermidis P1111; settings: PSSE P1111, N.A. = no activity at 0.8 nmol peptide each well
Experimental: (§1) The antimicrobial activity of seven peptides, including MeuFSPL-1, MeuFSPL-2, Marmelittin, Melittin, Meucin-22, Marcin-22, and MeuTXKβ1, was evaluated by the inhibition-zone assay previously described in our studies (Hultmark, [1998]; Zhu et al., [2012a]; Zhu and Gao, [2014]). Temperatures used were 30 or 37°C for bacteria or 28°C for fungi. Media used were Luria-Bertani (LB) Broth (10 g tryptone, 5 g yeast extract, and 5 g NaCl in 1 l of water) or Nutrient Broth (10 g peptone, 5 g beef extract powder, and 5 g NaCl in 1 l of water) or GYM(Isp2) (4 g yeast extract, 10 g malt extract, 4 g glucose, 2 g CaCO3 in 1 l of water) for bacteria or Potato Dextrose Broth (200 g patato and 20 g glucose in 1 l of water) for fungi. To make plates, 10 μl of microbial culture (~2 × 10^6 bacterial cells or fungal spores/ml) were mixed in 6 ml of medium containing 0.8% agar and poured into Peri dishes of 9.0 cm diameter. Wells with a diameter of 2 mm were punched into the medium, filled with 2 μl of sample each well. In this assay, three different doses of peptides were applied to three independent wells in one standard bacterial plate. After incubation overnight, inhibition zones were measured and used to calculate lethal concentrations (CL), a concentration just sufficient to inhibit bacterial growth (Hultmark, [1998]; Gao et al., [2009]). CL values are calculated from a plot of d^2 against log n, where d is the diameter (in cm) and n is the amount of sample applied in the well (in nmol). The plot is linear and thus CL can be calculated from the slope (k) and the intercept (m) of this plot. The formula used here is CL = 2.93/ak10^m/k, where “a” is the thickness of the bacterial plate and “CL” is in μM.

[2] = test system: Bacillus subtilis CGMCC 1.2428; settings: BS CGMCC 1.2428, N.A. = no activity at 0.8 nmol peptide each well
Experimental: as §1

[3] = test system: Staphylococcus aureus J685; settings: SA J685, N.A. = no activity at 0.8 nmol peptide each well
Experimental: as §1

Escherichia coli D. G2b = settings: EC D. G2b, N.A. = no activity at 0.8 nmol peptide each well
Experimental: as §1

[4] = test system: Staphylococcus warneri ATCC 1.2824; settings: SW ATCC 1.2824, N.A. = no activity at 0.8 nmol peptide each well
Experimental: as §1

[5] = test system: Staphylococcus aureus J698; settings: SA J698, N.A. = no activity at 0.8 nmol peptide each well
Experimental: as §1

[6] = test system: Bacillus megaterium CGMCC 1.0459; settings: BM CGMCC 1.0459, N.A. = no activity at 0.8 nmol peptide each well
Experimental: as §1

[7] = test system: Escherichia coli Am. J16c; settings: EC Am. J16c, N.A. = no activity at 0.8 nmol peptide each well
Experimental: as §1

[8] = test system: methicillin-resistant Staphylococcus aureus P1374; settings: MRSA P1374, N.A. = no activity at 0.8 nmol peptide each well
Experimental: as §1

[9] = test system: Escherichia coli ATCC 25922; settings: EC ATCC 25922, N.A. = no activity at 0.8 nmol peptide each well
Experimental: as §1

[10] = test system: Staphylococcus aureus J700; settings: SA J700, N.A. = no activity at 0.8 nmol peptide each well
Experimental: as §1

[11] = test system: Streptococcus mutans ATCC 1.2499; settings: SM ATCC 1.2499, N.A. = no activity at 0.8 nmol peptide each well
Experimental: as §1

[12] = test system: Escherichia coli Am. J23a; settings: EC Am. J23a, N.A. = no activity at 0.8 nmol peptide each well
Experimental: as §1

[13] = test system: Micrococcus luteus CGMCC 1.0290; settings: ML CGMCC 1.0290, N.A. = no activity at 0.8 nmol peptide each well
Experimental: as §1

[14] = test system: Stenotrophomonas maltophilia CGMCC 1.1788; settings: SMAL CGMCC 1.1788, N.A. = no activity at 0.8 nmol peptide each well
Experimental: as §1

[15] = test system: Escherichia coli CIP. J14b; settings: EC CIP. J14b, N.A. = no activity at 0.8 nmol peptide each well
Experimental: as §1

[16] = test system: Streptococcus sanguinis ATCC 1.2497; settings: SSAN ATCC 1.2497, N.A. = no activity at 0.8 nmol peptide each well
Experimental: as §1

[17] = test system: methicillin-resistant coagulase-negative Staphylococcus P1369; settings: MRCNS P1369, N.A. = no activity at 0.8 nmol peptide each well
Experimental: as §1

[18] = test system: penicillin-resistant Staphylococcus aureus P1383; settings: PRSA P1383; inhibition-zone assay; N.A. = no activity at 0.8 nmol peptide each well
Experimental: as §1

[19] = test system: methicillin-resistant Staphylococcus aureus P1386; settings: MRSA P1386, N.A. = no activity at 0.8 nmol peptide each well
Experimental: as §1

[20] = test system: penicillin-resistant Staphylococcus epidermidis P1389; settings: PRSE P1389, N.A. = no activity at 0.8 nmol peptide each well
Experimental: as §1

[21] = test system: methicillin-sensitive Staphylococcus aureus CGMCC 1.89; settings: MSSA CGMCC 1.89, N.A. = no activity at 0.8 nmol peptide each well
Experimental: as §1

[22] = test system: Streptococcus salivarius ATCC 1.2498; settings: SSAL ATCC 1.2498, N.A. = no activity at 0.8 nmol peptide each well
Experimental: as §1

Candida albicans SZ72 = settings: CA SZ72, 28°C, N.A. = no activity at 0.8 nmol peptide each well
Experimental: as §1

Molecule	Lethal concentration (CL) [1] [µM]	Lethal concentration (CL) [2] [µM]	Lethal concentration (CL) [3] [µM]	Lethal concentration (CL) (Escherichia coli D. G2b) [µM]	Lethal concentration (CL) [4] [µM]	Lethal concentration (CL) [5] [µM]	Lethal concentration (CL) [6] [µM]	Lethal concentration (CL) [8] [µM]	Lethal concentration (CL) [10] [µM]	Lethal concentration (CL) [11] [µM]	Lethal concentration (CL) [12] [µM]	Lethal concentration (CL) [14] [µM]	Lethal concentration (CL) [15] [µM]	Lethal concentration (CL) [16] [µM]	Lethal concentration (CL) [17] [µM]	Lethal concentration (CL) [18] [µM]	Lethal concentration (CL) [19] [µM]	Lethal concentration (CL) [20] [µM]	Lethal concentration (CL) [21] [µM]	Lethal concentration (CL) [22] [µM]	also measured
CC[C@H](C)[C@H](NC(=O)CN)C(=O)NCC(=O)N[C@@H](C)C(=O)N[C@H](C(=O)N[C@@H](CC(C)C)C(=O)N[C@@H](CCCCN)C(=O)N[C@H](C(=O)N[C@@H](CC(C)C)C(=O)N[C@H](C(=O)N[C@H](C(=O)NCC(=O)N[C@@H](CC(C)C)C(=O)N1CCC[C@H]1C(=O)N[C@@H](C)C(=O)N[C@@H](CC(C)C)C(=O)N[C@H](C(=O)N[C@@H](CO)C(=O)N[C@@H](Cc1c[nH]c2ccccc12)C(=O)N[C@H](C(=O)N[C@@H](CCCCN)C(=O)N[C@@H](CCCNC(=N)N)C(=O)N[C@@H](CCCCN)C(=O)N[C@@H](CCCNC(=N)N)C(=O)N[C@@H](CCC(N)=O)C(=O)N[C@@H](CCC(N)=O)C(N)=O)[C@@H](C)CC)[C@@H](C)CC)[C@@H](C)O)[C@@H](C)O)C(C)C)C(C)C [Melittin, reference compound]	13.4	9.2	13.70	18.20	1.37	12.08	11.6	11.6	12.08	9.37	18.20	18.72	18.20	16.41	9.3	9.1	9.3	9.1	7.9	18.20	Lethal concentration (CL) [7]: 24.54 µM; Lethal concentration (CL) [9]: 14.4 µM; Lethal concentration (CL) [13]: 7.5 µM
FFGHLFKLATKIIPSFFRRKNQ [MAC-22]	1.35	2.11	2.39	12.95	4.45	2.39	1.35	1.35	2.39	4.22	12.70	6.78	12.03	9.12	1.35	2.11	1.35	3.72	1.35	4.22	Lethal concentration (CL) [7]: 15.15 µM; Lethal concentration (CL) [9]: 10.69 µM; Lethal concentration (CL) [13]: 2.58 µM
FFGHLFKLATKIIPSLFQ [MUC-18, reference compound]	0.87	2.11	8.71	37.28	11.69	5.16		3.35	6.86	9.32	22.72	13.72	22.72	13.72	4.89	3.72	1.35	3.35	0.87	9.24	Lethal concentration (CL) [7]: 22.72 µM
FFGHLFKLATKIIPSLFQRKKE [MUC-22]	1.61	1.86	2.66	9.93	3.76	2.66	3.72	0.87	2.66	2.39	7.36	3.79	11.65	3.37	2.21	0.87	1.88	0.56	1.35	4.22	Lethal concentration (CL) [7]: 7.49 µM; Lethal concentration (CL) [9]: 7.95 µM; Lethal concentration (CL) [13]: 2.71 µM
FLFSLIPSAISGLINAFK-NH2 [MeuFSPL-2]	4.77	4.01	5.36	21.42	8.65	4.11	2.67	3.61	8.44	5.23	37.43	3.52	37.43	2.70	3.88	3.52	5.13	5.13	3.14	5.36	Lethal concentration (CL) (Candida albicans SZ72): 12.72 µM; Lethal concentration (CL) [9]: 12.16 µM; Lethal concentration (CL) [13]: 1.50 µM
